Measurements taken from patent publication US20240398767A1, “INHIBITORS OF THE MTDH-SND1 PROTEIN COMPLEX FOR CANCER THERAPY” (The Trustees of Princeton University, priority 2021, published 2024).

Legend:
[1] = molecular target: T1, MTDH-SND1 interaction: SND1-NLuc (human SND1 16-339aa fused via 3x GGGS linker to N-terminal firefly luciferase 1-416aa) + CLuc-MTDH (C-terminal firefly luciferase 398-550aa fused via 3x GGGS linker to human MTDH 386-407aa) (Homo sapiens, UniProt Q7KZF4); experiment: Cell-free split-luciferase assay of MTDH-SND1 interaction disruption, multiple doses (FIG. 3E); assay type: binding; conditions: cell free (HEK293T lysates), curves fit, read-out: MTDH-SND1 interaction (split-luciferase) SND1-NLuc + CLuc-MTDH interaction domains IC50
T1 construct: CLuc (398-550)-GGGS linker-MTDH (386-407) with HA tag; expressed in HEK293T; cell-free split-luciferase complementation

[2] = molecular target: T2, MTDH-SND1 interaction (Homo sapiens, UniProt Q7KZF4); experiment: Cell-free split-luciferase (Split-luc) assay, SND1-NLuc + CLuc-MTDH; assay type: biochemical; conditions: for IC50: split-luc assay in various concentrations
T2 construct: made in house; host or cells: HEK293T cells, transient transfection of pcDNA3.1 plasmids; crude cleared lysates, each fusion expressed separately and the lysates pre-mixed
From the text: To generate a luciferase-based screening system, firefly luciferase was split into N- and C-terminals according to previous studies^21-23. Both N- and C-terminal domains alone have almost undetectable luciferase activity (FIG. 10A). Next, the two fragments were fused to SND1 and MTDH interaction domains respectively to generate SND1-NLuc and CLuc-MTDH (Split-luc) (FIG. 10A, left, and Table 3). […] However, when SND1-NLuc+CLuc-MTDH were co-expressed, N- and C-terminal domains of the luciferase fragments were brought close to each other due to the interaction between SND1 and MTDH, and substantial luciferase activity was reconstituted (FIG. 3A, left and FIG. 10A).
(§1) Luciferase-based screening. Seed HEK293T cells on 3×15 cm dish at 18-24 hr before transfection with 7-8×10^6 cells per dish targeting 70-80% confluence when start transfection. 20 μg of pCDNA3.1-SND1-NLuc, pCDNA3.1-CLuc-MTDH, or 2 μg of pCDNA3.1-NLuc-CLuc plasmids that described above were transfected to each dish. 72 hr after transfection the cells were lysed with 5 ml of luciferase lysis buffer (2 mM EDTA, 20 mM DTT, 10% glycerol, 1% Triton X-100, 25 mM Tris base, adjusted to pH7.8 with H3PO4) at 4° C. for 20 min. The protein lysates were centrifuged at 13,000 rpm for 10 min, and the supernatant were collected.
For small chemical compound screening, white, flat-bottom, solid 384-well plates were used. Compounds were added into each well as 0.1 μl of 10 mM DMSO solution (or same amount of DMSO, serve as control). The first and last columns were free, and MTDH wild type (PNSDWNAPAEEWGNW) or mutant (PNSDANAPAEEAGNW) peptides were added as positive and negative controls right before screening. Same amount of MTDH-CLuc and SND1-NLuc were pre-mixed at 4° C. for 30 min to generate split-luc. 5 μl of split- or linked-luc was added into each well. 15 μl of luciferase assay buffer (25 mM Glycylglycine pH 7.8, 15 mM K3PO4 pH 7.8, 15 mM MgSO4, 4 mM EGTA, 2 mM ATP added just before use, 10 mM DTT added just before use and 1 mM D-Luciferin added just before use) was then added into each well to get a 20 μl reaction system with 50 μM of compounds (peptides) in each well. The plates were incubated at 4° C. for 1 hr and luciferase activity at each well was measured.
The inhibitory efficiency of each compound was calculated as following: (signal at DMSO well−signal at compound well)/signal at DMSO well. MTDH wild type or mutant peptide in each plate was served as positive and negative controls to monitor the data quality of each plate.

[3] = system: 4TO7 lung metastases; experiment: Established 4TO7 lung macrometastases; assay type: in vivo, Balb/C females
Description: For FIGS. 7A-7D, 2 k 4TO7 cells were injected into Balb/C females. 2 weeks after the injections, the mice were randomized based on lung metastasis that indicated by BLI, and were divided into four groups followed by vehicle, paclitaxel (Pac), and C26-A6 treatment alone or in combination. For Pac, the mice were treated with 20 mg/kg of Pac twice per week for the first two week and then once per week after that, For C26-A6, the mice were treated with 15 mg/kg of C26-A6 5 days per week. n=6 mice per group. Data represent mean±SEM.
FIG. 7A, Representative mice right before the treatment (week 2) and at week 10 are shown.
FIG. 7B, The BLI signal was quantified at week 2. Significance determined by one-way ANOVA analysis with Dunnett's test for multiple comparisons.
FIG. 7C, The metastasis progression of each individual is shown.
FIG. 7D, Survival rate in each group was analyzed. Significance determined by two-sided Log-rank test.
Lastly, to mimic the clinical scenario of adjuvant chemotherapy following surgical removal of the primary tumors, SCP28 mammary tumors were removed when they reached 5 mm in diameter, the mice were then randomly separated into four groups and subjected to the different treatment regimens as above. […] The mice were then treated with vehicle or paclitaxel and C26-A6 alone or in combination, and the metastasis progression was monitored by BLL.

[4] = molecular target: T3, Linked-luc (NLuc and CLuc of firefly luciferase fused together) (Photinus pyralis, UniProt P08659, INS416[…]); experiment: Linked-luciferase (Linked-luc) counter screen, cell free; assay type: biochemical; conditions: 50 μM peptide
T3 construct: made in house; host or cells: HEK293T cells, transient transfection of pcDNA3.1-NLuc-CLuc; crude cleared lysate
From the text: The interaction between SND1-NLuc and CLuc-MTDH was also validated with co-immunoprecipitation (Co-IP) experiments (FIG. 10B). In the presence of the compounds (inhibitors) that block MTDH-SND1 interaction, the reconstitution of luciferase activity was expected to be reduced (FIG. 3A). Meanwhile, considering the possibility that compounds capable of directly inhibiting the enzymatic activity of luciferase could also result in lower luciferase signal without any blocking effect on MTDH-SND1 interaction, Linked-luc that directly fuse NLuc and CLuc together was generated to be used in counter screening (FIG. 3A, right, and Table 3).
as §1, with “The protein lysates were centrifuged at 13,000 rpm for 10 min, and the supernatant were collected.” left out
For small chemical compound screening, white, flat-bottom, solid 384-well plates were used. […] The plates were incubated at 4° C. for 1 hr and luciferase activity at each well was measured.

T1 sequence (Q7KZF4 with tags, fused parts or gaps): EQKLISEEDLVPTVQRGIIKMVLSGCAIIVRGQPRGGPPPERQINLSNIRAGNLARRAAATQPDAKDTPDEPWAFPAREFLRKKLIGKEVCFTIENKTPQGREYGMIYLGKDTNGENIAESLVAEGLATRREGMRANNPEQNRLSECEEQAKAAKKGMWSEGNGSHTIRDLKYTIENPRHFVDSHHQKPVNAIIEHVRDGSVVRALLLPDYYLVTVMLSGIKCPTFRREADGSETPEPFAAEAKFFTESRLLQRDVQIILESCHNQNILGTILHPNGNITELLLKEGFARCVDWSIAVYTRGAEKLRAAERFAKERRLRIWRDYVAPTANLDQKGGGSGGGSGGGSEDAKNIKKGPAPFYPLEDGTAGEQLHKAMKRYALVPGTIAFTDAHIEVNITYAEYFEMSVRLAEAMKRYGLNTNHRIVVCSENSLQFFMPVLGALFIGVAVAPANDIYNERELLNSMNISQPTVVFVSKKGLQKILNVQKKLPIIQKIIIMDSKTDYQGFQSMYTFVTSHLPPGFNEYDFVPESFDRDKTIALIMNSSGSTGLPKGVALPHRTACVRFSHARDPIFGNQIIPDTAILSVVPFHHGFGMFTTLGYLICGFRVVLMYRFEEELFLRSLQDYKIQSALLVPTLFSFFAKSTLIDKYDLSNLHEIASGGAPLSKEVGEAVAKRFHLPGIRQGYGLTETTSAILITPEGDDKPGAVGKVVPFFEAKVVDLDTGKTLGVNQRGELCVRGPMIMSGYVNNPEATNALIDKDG
T1 sequence (Q86UE4 386-407 partner): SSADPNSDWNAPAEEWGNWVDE
T2 sequence (Q7KZF4 with tags, fused parts or gaps): as the sequence (Q7KZF4 with tags, fused parts or gaps) above
T3 sequence (P08659 with tags, fused parts or gaps INS416[withheld]): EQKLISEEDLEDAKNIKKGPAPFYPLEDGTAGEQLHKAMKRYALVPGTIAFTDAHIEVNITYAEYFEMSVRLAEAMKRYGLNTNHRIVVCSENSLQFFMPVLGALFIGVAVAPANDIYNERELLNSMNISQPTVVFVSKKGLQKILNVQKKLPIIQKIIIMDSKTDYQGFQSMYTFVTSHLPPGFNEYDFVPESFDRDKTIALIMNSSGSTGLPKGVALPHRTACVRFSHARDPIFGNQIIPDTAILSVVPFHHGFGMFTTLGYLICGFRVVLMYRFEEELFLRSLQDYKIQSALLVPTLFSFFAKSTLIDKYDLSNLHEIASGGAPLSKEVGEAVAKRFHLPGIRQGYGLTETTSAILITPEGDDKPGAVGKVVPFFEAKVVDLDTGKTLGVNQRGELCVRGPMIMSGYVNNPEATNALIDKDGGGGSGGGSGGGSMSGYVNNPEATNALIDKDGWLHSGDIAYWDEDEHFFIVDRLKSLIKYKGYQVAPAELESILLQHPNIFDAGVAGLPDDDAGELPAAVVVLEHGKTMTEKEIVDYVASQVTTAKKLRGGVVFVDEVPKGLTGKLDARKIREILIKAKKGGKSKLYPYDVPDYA

COc1ccc(NC(=O)N2CCc3c(C(=O)NC4CCN(C5CC5)CC4)cccc32)cc1 [Compound C32-A2]
IC50 [1]: 14.5 µM

COc1ccc(Cl)cc1S(=O)(=O)Nc1cccn2c(C3CCC3)nnc12 [Analog C26]
IC50 [2]: < 20 µM

CC(=O)O[C@H]1C(=O)[C@@]2(C)[C@H]([C@H](OC(=O)c3ccccc3)[C@]3(O)C[C@H](OC(=O)[C@H](O)[C@@H](NC(=O)c4ccccc4)c4ccccc4)C(C)=C1C3(C)C)[C@]1(OC(C)=O)CO[C@@H]1C[C@@H]2O [paclitaxel, reference compound]
metastatic growth (BLI) ([3]; Pac 20 mg/kg, C26-A6 15 mg/kg 5 days per week): slowed down metastatic growth
metastasis shrinkage ([3]; six mice per group): did not result in metastasis shrinkage

COc1ccc(Cl)cc1S(=O)(=O)Nc1cccn2ncnc12 [Compound C26-A2]
IC50 [1]: 9.4 µM

COc1ccc(Cl)cc1S(=O)(=O)Nc1cccn2c(C3CCC3)nnc12 [Compound C26]
IC50 [1]: 14.9 µM

COc1ccc(NC(=O)N2CCc3c(C(=O)NC4CCN(C)CC4)cccc32)cc1 [Analog C32]
IC50 [2]: < 20 µM

PNSDANAPAEEAGNW [MTDH-MT, reference compound]
linked-luc activity [4]: not affected
split-luc activity ([2]; 50 μM peptide): but not the mutant significantly inhibited split-luc activity

COc1ccc(Cl)cc1S(=O)(=O)Nc1cccn2nc(C)nc12 [Compound C26-A6]
IC50 [1]: 2.4 µM

COc1ccc(NC(=O)N2CCc3c(C(=O)NC4CCN(C)CC4)cccc32)cc1 [Compound C32]
IC50 [1]: 51.1 µM

CNC(=O)c1cccc2c1CCN2C(=O)Nc1ccc(OC)cc1 [Compound C32-A4]
IC50 [1]: 4.9 µM

COc1ccc(NC(=O)N2CCc3c(C(=O)N(C)C)cccc32)cc1 [Compound C32-A5]
IC50 [1]: 4.6 µM

COc1ccc(Cl)cc1S(=O)(=O)Nc1cccn2cnnc12 [Compound C26-A1]
IC50 [1]: 8.6 µM
